According to PubChem BioAssay (NCI):
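Interpolation was linear, between the two tested concentrations surrounding the appropriate level; five concentrations were tested over 48 hours in 96-well plates. The concentration for full growth arrest is given as TGI.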

Columns and labels:
Assay in all cases: NCI anticancer screen, dose series, 48 h
DU-145 prostate = test system: DU-145 prostate
SW-620 colon = test system: SW-620 colon
HT29 colon = test system: HT29 colon
CCRF-CEM leukemia = test system: CCRF-CEM leukemia
OVCAR-3 ovarian = test system: OVCAR-3 ovarian
KM12 colon = test system: KM12 colon
EKVX NSCLC = test system: EKVX NSCLC
UACC-257 melanoma = test system: UACC-257 melanoma
MDA-MB-231 breast = test system: MDA-MB-231 breast
PC-3 prostate = test system: PC-3 prostate
A498 renal = test system: A498 renal
HCT-116 colon = test system: HCT-116 colon
MDA-MB-435 = test system: MDA-MB-435
K-562 leukemia = test system: K-562 leukemia
UO-31 renal = test system: UO-31 renal
SK-MEL-5 melanoma = test system: SK-MEL-5 melanoma
SNB-19 CNS = test system: SNB-19 CNS
HS 578T breast = test system: HS 578T breast
U251 CNS = test system: U251 CNS
MCF7 breast = test system: MCF7 breast
SK-MEL-28 melanoma = test system: SK-MEL-28 melanoma
SF-295 CNS = test system: SF-295 CNS
ACHN renal = test system: ACHN renal
T-47D breast = test system: T-47D breast
SN12C renal = test system: SN12C renal
SK-MEL-2 melanoma = test system: SK-MEL-2 melanoma
NCI-H23 lung = test system: NCI-H23 lung
SF-539 CNS = test system: SF-539 CNS
OVCAR-4 ovarian = test system: OVCAR-4 ovarian
MOLT-4 leukemia = test system: MOLT-4 leukemia
M14 melanoma = test system: M14 melanoma
MALME-3M melanoma = test system: MALME-3M melanoma
HCC-2998 colon = test system: HCC-2998 colon
SR leukemia = test system: SR leukemia
HOP-92 NSCLC = test system: HOP-92 NSCLC
RXF 393 renal = test system: RXF 393 renal
IGROV1 ovarian = test system: IGROV1 ovarian
SK-OV-3 ovarian = test system: SK-OV-3 ovarian
SNB-75 CNS = test system: SNB-75 CNS
RPMI-8226 leukemia = test system: RPMI-8226 leukemia
CAKI-1 renal = test system: CAKI-1 renal
OVCAR-8 ovarian = test system: OVCAR-8 ovarian
NCI-H226 lung = test system: NCI-H226 lung
BT-549 breast = test system: BT-549 breast
COLO 205 colon = test system: COLO 205 colon
NCI/ADR-RES ovarian = test system: NCI/ADR-RES ovarian
786-0 renal = test system: 786-0 renal
A549 NSCLC = test system: A549 NSCLC
NCI-H460 lung = test system: NCI-H460 lung
OVCAR-5 ovarian = test system: OVCAR-5 ovarian
TK-10 renal = test system: TK-10 renal
UACC-62 melanoma = test system: UACC-62 melanoma
MDA-N = test system: MDA-N
HCT-15 colon = test system: HCT-15 colon
SF-268 CNS = test system: SF-268 CNS
HOP-62 NSCLC = test system: HOP-62 NSCLC
LOX IMVI melanoma = test system: LOX IMVI melanoma
NCI-H522 lung = test system: NCI-H522 lung

Q: `COc1ccc2c(-c3ccc(O)cc3)c(Oc3ccc(Cl)cc3)c(=O)oc2c1` was tested. Which TGI (DU-145 prostate) did it give?
A: The TGI was 24.7 µM.

Q: And the TGI (SW-620 colon)?
A: The TGI was over 32 µM.

Q: And the TGI (HT29 colon)?
A: Its TGI is over 38.1 µM.

Q: And the TGI (CCRF-CEM leukemia)?
A: Its TGI is over 100 µM.

Q: What about the TGI (OVCAR-3 ovarian) of the same compound?
A: Its TGI is 12.3 µM.

Q: And the TGI (KM12 colon)?
A: Its TGI is 22.6 µM.

Q: What about the TGI (EKVX NSCLC) of the same compound?
A: Its TGI is 12.5 µM.

Q: And the TGI (UACC-257 melanoma)?
A: The TGI was 41 µM.

Q: And the TGI (MDA-MB-231 breast)?
A: The TGI was 20.6 µM.

Q: And the TGI (PC-3 prostate)?
A: Its TGI is 24.4 µM.

Q: And the TGI (A498 renal)?
A: The TGI was 22.5 µM.

Q: What about the TGI (HCT-116 colon) of the same compound?
A: The TGI was over 33.6 µM.

Q: What about the TGI (MDA-MB-435) of the same compound?
A: The TGI was 25.7 µM.

Q: And the TGI (K-562 leukemia)?
A: The TGI was over 57.8 µM.

Q: And the TGI (UO-31 renal)?
A: The TGI was 13.6 µM.

Q: And the TGI (SK-MEL-5 melanoma)?
A: Its TGI is 10.4 µM.

Q: What about the TGI (SNB-19 CNS) of the same compound?
A: Its TGI is 24.2 µM.

Q: What about the TGI (HS 578T breast) of the same compound?
A: The TGI was 16.8 µM.

Q: And the TGI (U251 CNS)?
A: Its TGI is 20.1 µM.

Q: What about the TGI (MCF7 breast) of the same compound?
A: The TGI was over 23.1 µM.

Q: What about the TGI (SK-MEL-28 melanoma) of the same compound?
A: Its TGI is 23.1 µM.

Q: And the TGI (SF-295 CNS)?
A: Its TGI is 23 µM.

Q: And the TGI (ACHN renal)?
A: Its TGI is over 37.7 µM.

Q: And the TGI (T-47D breast)?
A: Its TGI is over 100 µM.

Q: What about the TGI (SN12C renal) of the same compound?
A: The TGI was 19.2 µM.

Q: And the TGI (SK-MEL-2 melanoma)?
A: The TGI was 11.2 µM.

Q: And the TGI (NCI-H23 lung)?
A: Its TGI is 8.32 µM.

Q: What about the TGI (SF-539 CNS) of the same compound?
A: Its TGI is 28.8 µM.

Q: What about the TGI (OVCAR-4 ovarian) of the same compound?
A: The TGI was 25.4 µM.

Q: And the TGI (MOLT-4 leukemia)?
A: Its TGI is over 29.9 µM.

Q: And the TGI (M14 melanoma)?
A: The TGI was 17.9 µM.

Q: What about the TGI (MALME-3M melanoma) of the same compound?
A: Its TGI is 13.8 µM.

Q: And the TGI (HCC-2998 colon)?
A: The TGI was 25.7 µM.

Q: And the TGI (SR leukemia)?
A: The TGI was over 28.5 µM.

Q: And the TGI (HOP-92 NSCLC)?
A: Its TGI is 23.7 µM.

Q: What about the TGI (RXF 393 renal) of the same compound?
A: The TGI was 25 µM.

Q: What about the TGI (IGROV1 ovarian) of the same compound?
A: The TGI was 9.99 µM.

Q: And the TGI (SK-OV-3 ovarian)?
A: The TGI was 44.9 µM.

Q: What about the TGI (SNB-75 CNS) of the same compound?
A: Its TGI is 33.8 µM.

Q: And the TGI (RPMI-8226 leukemia)?
A: Its TGI is 20.8 µM.

Q: What about the TGI (CAKI-1 renal) of the same compound?
A: Its TGI is 10.2 µM.

Q: What about the TGI (OVCAR-8 ovarian) of the same compound?
A: Its TGI is over 48.8 µM.

Q: And the TGI (NCI-H226 lung)?
A: Its TGI is over 43.3 µM.

Q: What about the TGI (BT-549 breast) of the same compound?
A: Its TGI is 23.3 µM.

Q: What about the TGI (COLO 205 colon) of the same compound?
A: Its TGI is over 36.5 µM.

Q: And the TGI (NCI/ADR-RES ovarian)?
A: The TGI was over 46 µM.

Q: What about the TGI (786-0 renal) of the same compound?
A: The TGI was over 35.1 µM.

Q: What about the TGI (A549 NSCLC) of the same compound?
A: The TGI was over 29.5 µM.

Q: What about the TGI (NCI-H460 lung) of the same compound?
A: Its TGI is 19.8 µM.

Q: And the TGI (OVCAR-5 ovarian)?
A: Its TGI is 21.4 µM.

Q: And the TGI (TK-10 renal)?
A: The TGI was over 22.7 µM.

Q: And the TGI (UACC-62 melanoma)?
A: The TGI was 18.6 µM.

Q: And the TGI (MDA-N)?
A: Its TGI is 23.2 µM.

Q: What about the TGI (HCT-15 colon) of the same compound?
A: The TGI was 17.6 µM.

Q: What about the TGI (SF-268 CNS) of the same compound?
A: The TGI was 24.6 µM.

Q: What about the TGI (HOP-62 NSCLC) of the same compound?
A: The TGI was 44.2 µM.

Q: What about the TGI (LOX IMVI melanoma) of the same compound?
A: Its TGI is over 44.9 µM.

Q: And the TGI (NCI-H522 lung)?
A: The TGI was 6.53 µM.
